Test results reported in patent publication US5703093A, “Compounds and methods for the treatment of cardiovascular, inflammatory and immune disorders” (Cytomed, Inc., priority 1995, dated 1997).
Where “and” joins values, the source holds several entries; their conditions need not be identical. Identical values can stand only once. Blank lines part the entries; values can stand above or below the molecule they belong to.

Assays:
[1] = tested on: Leukotriene B4 Production in Ionophore-stimulated human whole blood; experiment: Inhibition of leukotriene B4 production in ionophore-stimulated human whole blood (HWB); type: cell-based; conditions: A23187-stimulated, LTB4 by EIA, repeat determinations
Method: Another biological assay used to evaluate the ability of a compound to inhibit the enzyme 5-lipoxygenase is based on the classic pharmacological model of inflammation induced by inhibition of LTB4 from ionophore stimulated human whole blood.
Inhibition of Leukotriene B4 Production in Ionophore-stimulated human whole blood
Human blood was drawn into heparinized blood collection tubes, and aliquoted in 1 ml portions into 1.5 ml microfuge tubes. Test compound ([…]) of varying concentrations, dissolved in DMSO, was added to the blood sample and incubated for 15 minutes at 37° C. Calcium ionophore ([…], A23187) in DMSO was added to a final concentration of […], and the samples were incubated for 30 minutes at 37° C. Samples are then centrifuged at 1100×g (2500 rpm, H1000B rotor, in a Sorvall centrifuge) for 10 minutes at 4° C. Supernatant ([…]) was transferred into a 1.5 ml microfuge tube, […] of cold methanol added, and proteins precipitated on ice for 30 minutes. The samples were centrifuged at 110×g for 10 minutes at 4° C., and the supernatant assayed for LTB4 using a commercially available EIA kit (Cayman Chemical) according to manufacturer's specifications.

[2] = tested on: whole blood 5-lipoxygenase (LTB4); experiment: Ex-vivo rat whole blood 5-lipoxygenase evaluation (ex vivo LTB4); type: in vivo
[3] = tested on: whole blood 5-lipoxygenase (LTB4); experiment: Ex-vivo mouse whole blood 5-lipoxygenase evaluation (ex vivo LTB4); type: in vivo; conditions: 3 mg/k iv
Method: Ex-vivo mouse whole blood 5-lipoxygenase evaluation
CD-1 female mice, weighing 18-25 grams, and CD female rats, weighing 150-230 grams, were obtained from Charles River Labs. Test compounds were dissolved in 0.5% DMSO in 0.9% NaCl for administration in mice (0.5 mg/ml) and in an alcohol vehicle (2% benzyl alcohol, 1% ethanol, 40% PEG 300, 10% propylene glycol, 47% of 5% dextrose and 3.5% pluronic F-68 in DiH2 O) for use in rats (5 mg/ml). […] Heparinized whole blood (0.3 ml) was added into 1.5 ml Eppendorf centrifuge tube containing […] of 2 mM calcium ionophore A23187 (the final concentration of A23187 was […]). The sample was incubated for 30 minutes in a water bath at 37° C., and then centrifuged for 2 minutes. The plasma was diluted (x120) and assayed for LTB4 using EIA.

[4] = target: T1, Cytosol 5-Lipoxygenase of Rat Basophile Leukemia Cells (Rattus norvegicus, UniProt P12527); experiment: Effect on cytosol 5-lipoxygenase of rat basophile leukemia (RBL-2H3) cells; type: biochemical; conditions: RBL-2H3 cytosol preparation, [14C]arachidonic acid; repeat determinations
T1 construct: The supernatant was then removed and stored in aliquots; endogenous in cells; host or cells: RBL-2H3 (rat basophilic leukemia) cells, sonicate, 20,000 x g supernatant
T1 sequence (P12527 1-673): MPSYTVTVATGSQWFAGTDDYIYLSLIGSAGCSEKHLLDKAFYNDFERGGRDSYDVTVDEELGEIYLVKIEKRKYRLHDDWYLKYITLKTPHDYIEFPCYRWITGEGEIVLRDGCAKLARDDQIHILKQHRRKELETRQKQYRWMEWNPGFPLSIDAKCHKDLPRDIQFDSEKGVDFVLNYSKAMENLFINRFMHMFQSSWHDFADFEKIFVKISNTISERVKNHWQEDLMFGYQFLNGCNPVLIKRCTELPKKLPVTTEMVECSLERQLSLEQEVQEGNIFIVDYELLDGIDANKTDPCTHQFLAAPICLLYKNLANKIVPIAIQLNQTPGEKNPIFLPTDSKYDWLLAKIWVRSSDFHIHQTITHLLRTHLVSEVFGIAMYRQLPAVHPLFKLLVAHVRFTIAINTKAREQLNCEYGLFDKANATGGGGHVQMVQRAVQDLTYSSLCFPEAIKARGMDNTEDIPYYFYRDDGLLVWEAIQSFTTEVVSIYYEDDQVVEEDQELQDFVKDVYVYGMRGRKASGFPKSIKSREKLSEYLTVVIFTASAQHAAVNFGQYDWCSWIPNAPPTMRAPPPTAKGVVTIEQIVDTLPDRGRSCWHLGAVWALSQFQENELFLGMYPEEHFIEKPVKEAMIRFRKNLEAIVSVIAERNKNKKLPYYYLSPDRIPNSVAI
Method: A wide variety of biological assays have also been used to evaluate the ability of a compound to inhibit the enzyme 5-lipoxygenase. For example, a cytosol 5-lipoxygenase of rat basophilic leukemia cells (RBL) has been widely utilized in studies on leukotriene biosynthesis. Compounds that inhibit 5-lipoxygenase decrease the levels of leukotrienes.
Effect of Compounds on Cytosol 5-Lipoxygenase of Rat Basophile Leukemia Cells
RBL-2H3 cells were grown to confluence in tissue culture flasks according to Carter et al. (J PharmExp Ther 256(3); 929-937, 1991). The cells were harvested and washed five times in calcium-and magnesium-free D-PBS. The cells were suspended at 2×10^7 /ml in 10 mM BES, 10 mM PIPES, pH 6.8, 1 mM EDTA, and then sonicated. […]
The 5-LO activity in the RBL-2H3 preparation was determined as follows: 0.1 ml reactions consisting of 0.7 mM CaCl2, 100 mM NaCl, 1 mM EDTA, 10 mM BES, 10 MM PIPES, pH 7.4, varying concentrations of test compound dissolved in DMSO (7.5% DMSO final in assay), and an amount of the RBL-2H3 preparation that will convert 15% of the arachidonic acid substrate mixture to oxygenated products (determined experimentally for each RBL-2H3 preparation), were incubated for 20 minutes at room temperature. […] The film was developed, scanned using a densitometer, and the peak areas of arachidonic acid and its product(s) are calculated. […]

[5] = target: T2, 5-lipoxygenase (Homo sapiens, UniProt P09917); conditions: reported in the literature; cited from earlier work
T2 sequence (P09917 1-674): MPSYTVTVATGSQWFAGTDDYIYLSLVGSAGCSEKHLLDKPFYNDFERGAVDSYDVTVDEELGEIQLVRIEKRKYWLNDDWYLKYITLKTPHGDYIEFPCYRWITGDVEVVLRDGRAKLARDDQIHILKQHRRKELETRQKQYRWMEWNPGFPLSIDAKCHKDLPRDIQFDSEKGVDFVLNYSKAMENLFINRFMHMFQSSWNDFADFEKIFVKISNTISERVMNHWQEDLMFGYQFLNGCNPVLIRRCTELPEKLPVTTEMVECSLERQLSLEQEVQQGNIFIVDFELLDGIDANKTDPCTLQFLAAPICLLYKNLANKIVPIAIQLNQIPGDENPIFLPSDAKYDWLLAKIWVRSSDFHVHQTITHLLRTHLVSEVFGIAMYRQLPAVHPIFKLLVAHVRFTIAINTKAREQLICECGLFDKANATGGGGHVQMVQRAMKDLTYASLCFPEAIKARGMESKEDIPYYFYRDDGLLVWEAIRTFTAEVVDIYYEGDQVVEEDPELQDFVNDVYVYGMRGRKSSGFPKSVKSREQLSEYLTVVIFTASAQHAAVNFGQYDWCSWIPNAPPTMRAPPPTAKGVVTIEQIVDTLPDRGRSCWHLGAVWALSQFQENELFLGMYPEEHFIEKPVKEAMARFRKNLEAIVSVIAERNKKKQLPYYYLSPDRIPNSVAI

[6] = target: PAF (Homo sapiens, UniProt P25105); conditions: reported in the literature; cited from earlier work
PAF, sequence (P25105 whole entry): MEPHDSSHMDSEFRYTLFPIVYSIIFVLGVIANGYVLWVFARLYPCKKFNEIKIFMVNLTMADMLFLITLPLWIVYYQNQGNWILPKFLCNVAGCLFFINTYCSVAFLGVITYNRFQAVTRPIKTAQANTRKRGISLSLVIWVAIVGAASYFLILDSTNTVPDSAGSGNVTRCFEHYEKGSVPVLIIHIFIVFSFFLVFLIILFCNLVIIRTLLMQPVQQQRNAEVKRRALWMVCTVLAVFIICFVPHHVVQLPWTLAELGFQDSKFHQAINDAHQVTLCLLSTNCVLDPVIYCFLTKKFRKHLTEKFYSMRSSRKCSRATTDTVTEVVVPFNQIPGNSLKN

Compound: NC(=O)N(O)CCC#C[C@@H]1CC[C@@H](COc2ccc(F)cc2)O1
ex vivo LTB4 % inh. ([2]; 2 mg/k po, 60 minutes): 93% | ex vivo LTB4 % inh. ([2]; 2 mg/k po, 360 minutes): 5% | ex vivo LTB4 % inh. ([2]; 5 mg/k po, 900 minutes): 29% | ex vivo LTB4 % inh. ([3]; 15 minutes): 94% | ex vivo LTB4 % inh. ([3]; 60 minutes): 86% | ex vivo LTB4 % inh. ([3]; 180 minutes): 44%

Compound: NC(=O)N(O)CCC#C[C@H]1CC[C@@H](COc2ccc(F)cc2)O1
IC50 [1]: 520 nM | IC50 ([1]; Homo sapiens): 430 nM | IC50 [4]: 2000 nM and 1260 nM and 1560 nM and 880 nM | ex vivo LTB4 % inh. ([2]; 2 mg/k po, 60 minutes): 86% | ex vivo LTB4 % inh. ([2]; 2 mg/k po, 360 minutes): 63%

Compound: NC(=O)N(O)CCC#C[C@H]1CC[C@H](COc2ccc(F)cc2)O1
IC50 [1]: 270 nM | IC50 ([1]; Homo sapiens): 150 nM | IC50 [4]: 1350 nM and 1380 nM

Compound: NC(=O)N(O)CCC#C[C@@H]1CC[C@H](COc2ccc(F)cc2)O1
IC50 ([1]; Homo sapiens): 180 nM

Compound: COc1cc([C@H]2CC[C@H](c3cc(OC)c(OC)c(OC)c3)S2)cc(OC)c1OC (relative stereo) [L-653,150, trans-2,5-bis-(3,4,5-trimethoxyphenyl)tetrahydrothiophene]
inhibition of 5-lipoxygenase [5]: moderate inhibitor of 5-lipoxygenase | PAF antagonism [6]: potent PAF antagonist

More lines, main results first:

IC50 ([1]; Homo sapiens): 153 nM
Compound: NC(=O)N(O)CCCC[C@@H]1CC[C@@H](COc2ccc(F)cc2)O1
ex vivo LTB4 % inh. ([2]; 2 mg/k po, 900 minutes): 34% | ex vivo LTB4 % inh. ([2]; 5 mg/k po, 900 minutes): 34% | ex vivo LTB4 % inh. ([3]; 15 minutes): 89% | ex vivo LTB4 % inh. ([3]; 60 minutes): 22% | ex vivo LTB4 % inh. ([3]; 180 minutes): 36%

IC50 ([1]; Homo sapiens): 420 nM
Compound: NC(=O)N(O)CCCC[C@H]1CC[C@H](COc2ccc(F)cc2)O1 (single isomer, unassigned)
